The target in the experiment is T1, human M4 muscarinic acetylcholine receptor (Homo sapiens, UniProt P08173).
T1 construct: expressed in transfected cells; host or cells: CHO-K1
T1 sequence (P08173 1-479): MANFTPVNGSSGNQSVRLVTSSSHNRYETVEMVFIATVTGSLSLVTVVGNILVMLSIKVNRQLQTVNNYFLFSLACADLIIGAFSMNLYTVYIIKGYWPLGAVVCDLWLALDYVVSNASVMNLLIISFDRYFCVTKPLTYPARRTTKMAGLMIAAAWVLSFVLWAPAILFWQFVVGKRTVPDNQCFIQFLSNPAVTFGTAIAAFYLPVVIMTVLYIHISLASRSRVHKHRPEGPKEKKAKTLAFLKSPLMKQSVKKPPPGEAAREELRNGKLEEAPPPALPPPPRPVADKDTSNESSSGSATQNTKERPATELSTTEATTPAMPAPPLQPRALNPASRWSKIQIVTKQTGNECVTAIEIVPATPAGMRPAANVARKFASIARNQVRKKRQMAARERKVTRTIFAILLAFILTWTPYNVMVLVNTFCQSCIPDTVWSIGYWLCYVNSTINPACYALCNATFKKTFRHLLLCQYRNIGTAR
As to the kind of experiment: human FLIPR-based M4 PAM assay (Ca2+ mobilization, CHO-K1 cells with human M4 receptor and Gαqi5). The note with it: acetylcholine at 20% of maximum response, read-out: M4 PAM IP. It is filed as cell-based. In short, it runs like this:
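Calcium-mobilization (FLIPR) readout in dye-loaded CHO-K1 cells co-expressing human M4 receptor and Gαqi5. Potentiation measured against acetylcholine at a concentration giving 20% of maximal response, with an optional 70% addition; the reported value is the curve inflection point from a 4-parameter logistic fit.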
As to `COc1ccc(OC2CCN(c3nc4c(cc3C)C(=O)NC4)CC2)cc1` [Example 47, 2-(4-(4-methoxyphenoxy)piperidin-1-yl)-3-methyl-6,7-dihydro-5H-pyrrolo[3,4-b]pyridin-5-one], the EC50 amounted to 41 nM. On to `Cc1cc2c(nc1N1CCC(OCC(C)C)CC1)CNC2=O` [Example 192, 2-(4-isobutoxypiperidin-1-yl)-3-methyl-6,7-dihydro-5H-pyrrolo[3,4-b]pyridin-5-one], for which the EC50 came out at 310 nM. As for `Cc1cc2c(nc1N1CCC(Oc3ccc4c(c3)OCC4)CC1)[C@H](CO)N(C)C2=O` [Example 356, (R)-2-(4-((2,3-dihydrobenzofuran-6-yl)oxy)piperidin-1-yl)-7-(hydroxymethyl)-3,6-dimethyl-6,7-dihydro-5H-pyrrolo[3,4-b]pyridin-5-one], the EC50 was determined as 788 nM. Take `COC(=O)c1c(C)c(N2CCC(Oc3ccc4c(c3)COC4)CC2)nc2c1C(=O)NC2` [Example 212, methyl 2-(4-((1,3-dihydro-2-benzofuran-5-yl)oxy)piperidin-1-yl)-3-methyl-5-oxo-6,7-dihydro-5H-pyrrolo[3,4-b]pyridine-4-carboxylate]: the EC50 was determined as 1830 nM. Regarding `Cc1cc2c(nc1N1CCC(Oc3ccc(F)cc3)CC1)[C@H](CO)N(C)C2=O` [Example 280, (R)-2-(4-(4-fluorophenoxy)piperidin-1-yl)-7-(hydroxymethyl)-3,6-dimethyl-6,7-dihydro-5H-pyrrolo[3,4-b]pyridin-5-one], the EC50 worked out at 438 nM. In the case of `COc1ccc(OC2CCN(c3nc4c(c(CO)c3C)C(=O)NC4)CC2)cn1` [Example 302, 4-(hydroxymethyl)-2-(4-((6-methoxypyridin-3-yl)oxy)piperidin-1-yl)-3-methyl-6,7-dihydro-5H-pyrrolo[3,4-b]pyridin-5-one], the EC50 was 819 nM. As to `Cc1c(N2CCC(Oc3ccc4c(c3)COCC4)CC2)nc2c(c1C)C(=O)NC2` [Example 332, 2-(4-(isochroman-7-yloxy)piperidin-1-yl)-3,4-dimethyl-6,7-dihydro-5H-pyrrolo[3,4-b]pyridin-5-one], the EC50 worked out at 368 nM. In the case of `CCc1cc2c(nc1N1CCC(Oc3ccc4c(c3)COCC4)CC1)[C@@H](CO)N(C)C2=O` [Example 361, (S)-3-ethyl-7-(hydroxymethyl)-2-(4-(isochroman-7-yloxy)piperidin-1-yl)-6-methyl-6,7-dihydro-5H-pyrrolo[3,4-b]pyridin-5-one] it was 85 nM; in that of `COC(=O)c1ccc(OC2CCN(c3nc4c(cc3C)C(=O)NC4)CC2)cn1` [Example 87, methyl 5-((1-(3-methyl-5-oxo-6,7-dihydro-5H-pyrrolo[3,4-b]pyridin-2-yl)piperidin-4-yl)oxy)picolinate], 1000 nM; in that of `Cc1cc2c(nc1N1CCC(Oc3ccc4c(c3)CCO4)CC1)CNC2=O` [Example 109, 2-(4-((2,3-dihydrobenzofuran-5-yl)oxy)piperidin-1-yl)-3-methyl-6,7-dihydro-5H-pyrrolo[3,4-b]pyridin-5-one], 20 nM. With `CCc1cc2c(nc1N1CCC(Oc3ccc(OC)nc3)CC1)CNC2=O` [Example 228, 3-Ethyl-2-(4-((6-methoxypyridin-3-yl)oxy)piperidin-1-yl)-6,7-dihydro-5H-pyrrolo[3,4-b]pyridin-5-one], the EC50 was 86 nM.

As for `Cc1cc2c(nc1N1CC[C@@H](Oc3ccc4c(c3)COCC4)[C@@H](F)C1)CNC2=O` [Example 178B, 2-((3S,4R)-3-fluoro-4-(isochroman-7-yloxy)piperidin-1-yl)-3-methyl-6,7-dihydro-5H-pyrrolo[3,4-b]pyridin-5-one], the EC50 worked out at 18 nM.

For the compound `Cc1cc2c(nc1N1CCC(Oc3ccc4c(c3)CCCN4C)CC1)CNC2=O` [Example 291, 3-methyl-2-(4-((1-methyl-1,2,3,4-tetrahydroquinolin-6-yl)oxy)piperidin-1-yl)-6,7-dihydro-5H-pyrrolo[3,4-b]pyridin-5-one], the EC50 was determined as 204 nM. Take `Cc1cc2c(nc1N1CC[C@@H](Oc3cccc(C#N)c3)[C@@H](F)C1)CN(C)C2=O` [Example 45, 3-(((3S,4R)-1-(3,6-dimethyl-5-oxo-6,7-dihydro-5H-pyrrolo[3,4-b]pyridin-2-yl)-3-fluoropiperidin-4-yl)oxy)benzonitrile]: the EC50 was 53 nM. Take `COc1ccc(OC2CCN(c3nc4c(cc3CF)C(=O)NC4)CC2)cn1` [Example 304, 3-(Fluoromethyl)-2-(4-((6-methoxypyridin-3-yl)oxy)piperidin-1-yl)-6,7-dihydro-5H-pyrrolo[3,4-b]pyridin-5-one]: the EC50 is 1120 nM. Regarding `Cc1cc2c(nc1N1CCC(OCc3ccccc3)CC1)CNC2=O` [Example 63, 2-(4-(benzyloxy)piperidin-1-yl)-3-methyl-6,7-dihydro-5H-pyrrolo[3,4-b]pyridin-5-one], the EC50 is 145 nM. In the case of `Cc1cc2c(nc1N1CCC(OCC3(C)CC3)CC1)[C@H](CO)N(C)C2=O` [Example 340, (R)-7-(hydroxymethyl)-3,6-dimethyl-2-(4-((1-methylcyclopropyl)methoxy)piperidin-1-yl)-6,7-dihydro-5H-pyrrolo[3,4-b]pyridin-5-one] it was 2980 nM.

Regarding `Cc1cc2c(nc1N1CCC(Oc3ccc4c(cnn4C)c3)CC1)[C@H](CO)N(C)C2=O` [Example 360, (R)-7-(hydroxymethyl)-3,6-dimethyl-2-(4-((1-methyl-1H-indazol-5-yl)oxy)piperidin-1-yl)-6,7-dihydro-5H-pyrrolo[3,4-b]pyridin-5-one], the EC50 stood at 1680 nM. `Cc1cc2c(nc1N1CCC(Oc3ccc4c(c3)COC4)CC1)CN([C@@H](C)CO)C2=O` [Example 268D, (S)-2-(4-((1,3-dihydro-2-benzofuran-5-yl)oxy)piperidin-1-yl)-6-(1-hydroxypropan-2-yl)-3-methyl-6,7-dihydro-5H-pyrrolo[3,4-b]pyridin-5-one]: the EC50 worked out at 28 nM. In the case of `CCc1cc2c(nc1N1CCC(Oc3ccc4c(c3)CCOC4)CC1)CNC2=O` [Example 200A, 3-ethyl-2-(4-(isochroman-6-yloxy)piperidin-1-yl)-6,7-dihydro-5H-pyrrolo[3,4-b]pyridin-5-one] it was 58 nM; in that of `Cc1cc2c(nc1N1CC[C@@H](Oc3ccccc3)[C@@H](F)C1)CN(C(C)C)C2=O` [Example 248, 2-((3S,4R)-3-fluoro-4-phenoxypiperidin-1-yl)-6-isopropyl-3-methyl-6,7-dihydro-5H-pyrrolo[3,4-b]pyridin-5-one], 88 nM; in that of `Cc1c(N2CCC(Oc3ccc4c(c3)COC4)CC2)nc2c(c1C)C(=O)N(CC(N)=O)C2` [Example 310A, 2-(2-(4-((1,3-dihydro-2-benzofuran-5-yl)oxy)piperidin-1-yl)-3,4-dimethyl-5-oxo-5,7-dihydro-6H-pyrrolo[3,4-b]pyridin-6-yl)acetamide], 35 nM.

In the case of `CCc1cc2c(nc1N1CCC(Oc3ccc4c(c3)COCC4)CC1)CN(CCO)C2=O` [Example 267A, 3-ethyl-6-(2-hydroxyethyl)-2-(4-(isochroman-7-yloxy)piperidin-1-yl)-6,7-dihydro-5H-pyrrolo[3,4-b]pyridin-5-one], the EC50 stood at 102 nM. As to `COc1ccc(OC2CCN(c3nc4c(cc3C)C(=O)N(C3CC3)C4)CC2)cn1` [Example 269, 6-Cyclopropyl-2-(4-((6-methoxypyridin-3-yl)oxy)piperidin-1-yl)-3-methyl-6,7-dihydro-5H-pyrrolo[3,4-b]pyridin-5-one], the EC50 is 65 nM.

Values taken from patent US10329289B2, “6,7-dihydro-5H-pyrrolo[3,4-B]pyridin-5-one allosteric modulators of the M4 muscarinic acetylcholine receptor” (Merck Sharp & Dohme Corp., priority 2015, dated 2019).
